# Read-outs that look alike come from different tables or passages of the source.
# Tests used:
# cells [1] = details: cited from earlier work
# cells [2] = assay: Amount of AP1903 needed in vitro for effective signaling of cells; assay type: cell-based; details: calculated with 1600 Da MW
# Description: The fixed dose of AP1903 for injection used, for example, may be 0.4 mg/kg intravenously infused over 2 hours. The amount of AP1903 needed in vitro for effective signaling of cells is 10-100 nM (1600 Da MW). This equates to 16-160 μg/L or 0.016-1.6 μg/kg (1.6-160 μg/kg). Doses up to 1 mg/kg were well-tolerated in the Phase I study of AP1903 described above. Therefore, 0.4 mg/kg may be a safe and effective dose of AP1903 for this Phase I study in combination with the therapeutic cells.
# [3] = tested on: human pan T-cells containing the iC9 construct; assay: iC9 safety switch test: viability by flow cytometry using 7-AAD; assay type: cell-based; details: 24 hours incubation, 0-1000 nM tested, cells with iC9 safety switch
# Source text: Human pan T-cells were nucleofected using an Amaxa 4D nucleofector with one of four piggyBac transposons. Modified T cells receiving the “mock” condition were nucleofected with an empty piggyBac transposon. Modified T cells received either a piggyBac transposon containing a therapeutic agent alone (a sequence encoding a CARTyrin) or a piggyBac transposon containing an integrated iC9 sequence and a therapeutic agent (a sequence encoding a CARTyrin).
# To test the iC9 safety switch, each of the four modified T cells were incubated for 24 hours with 0, 0.1 nM, 1 nM, 10 nM, 100 nM or 1000 nM AP1903 (an induction agent for […]). Viability was assessed by flow cytometry using 7-aminoactinomycin D (7-AAD), a fluorescent intercalator, as a marker for cells undergoing apoptosis.
# [4] = cited from earlier work
# human primary T cells = assay: In vitro CARTyrin surface expression in T cells; assay type: cell-based; details: following lentiviral transduction of human primary T cells
# Source text: Characterization further assays correlations with functionality.
# tumor = assay: In vivo tumor challenge study in mice
# Source text: FIG. 6 is a schematic diagram depicting an in vivo tumor challenge study timeline using the A08 CARTyrin in mice.
# FIG. 6 depicts the treatment schedule for an in vivo study in mice using the A08 CARTyrin. […] FIG. 8 provides a series of photographs further illustrating tumor burden in control animal as well as those treated with P-BCMA-101.
# Description for BCMA+ tumor cells: Functionality of CARTyrin-expressing T cells was measured by degranulation against tumor lines.
Compound,amount needed in vitro for effective signaling of cells (cells [1]) [nM],"amount needed for effective signaling, equated to dose (cells [2]) [µg/kg]","amount needed for effective signaling, equated to mass concentration (cells [2]) [µg/L]",concentration at which apoptosis is induced [3] [nM],plasma level as % of maximal concentration ([4]; 0.5 hours post-dose),plasma level as % of maximal concentration ([4]; 2 hours post-dose) [%],plasma level as % of maximal concentration ([4]; 10 hours post-dose) [%],"well-tolerated doses ([4]; Phase I study, IV)","mean Cmax ([4]; single doses infused IV over 2 hours, 0.01-1.0 mg/kg dose range, plasma) [ng/mL]",surface expression (human primary T cells),tumor burden assessed by M-protein abundance (tumor; day 21),"tumor burden assessed by M-protein abundance (tumor; day 21, listed as P-BCMA-101)",tumor burden compared to controls (tumor; photographs),survival (tumor; to day 21) [%],cytotoxic function (e.g. proliferation) (BCMA+ tumor cells)
"CC[C@H](C(=O)N1CCCC[C@H]1C(=O)O[C@H](CCc1ccc(OC)c(OC)c1)c1cccc(OCC(=O)NCCNC(=O)COc2cccc([C@@H](CCc3ccc(OC)c(OC)c3)OC(=O)[C@@H]3CCCCN3C(=O)[C@@H](CC)c3cc(OC)c(OC)c(OC)c3)c2)c1)c1cc(OC)c(OC)c(OC)c1 (relative stereo) [AP1903, 2-Piperidinecarboxylic acid, 1-[(2S)-1-oxo-2-(3,4,5-trimethoxyphenyl)butyl]-, 1,2-ethanediylbis[imino(2-oxo-2,1-ethanediyl)oxy-3,1-phenylene[(1R)-3-(3,4-dimethoxyphenyl)propylidene]]ester, [2S-[1(R*),2R*[S*[S*[1(R*),2R*]]]]]-(9Cl)]",10 to 100,0.016 to 1.6,16 to 160,≤ 0.1,approximately 18%,~7,~1,up to 1 mg/kg,10 to 1275,,,,,,
"A08 CARTyrin: anti-BCMA CARTyrin (CAR comprising a Centyrin), SEQ ID NO: 21; P-BCMA-101 encodes the A08 anti-BCMA CARTyrin",,,,,,,,,,high levels of surface expression,no detectable M-protein,not detectable,reduce tumor burden,100,strong cytotoxic function

# — patent US20190177421A1, “CHIMERIC ANTIGEN RECEPTORS AND METHODS FOR USE” (Poseida Therapeutics, Inc., priority 2016, published 2019)
